# Experimental data: patent EP1158297A1, “METHOD FOR SCREENING COMPOUND HAVING AFFINITY FOR VITAMIN D RECEPTOR” (CHUGAI SEIYAKU KABUSHIKI KAISHA, priority 1999, dated 2000)
# Like-named read-outs stand apart in the source and are kept apart here.
# Assays:
# osteoporosis model rats [1] = assay type: in vivo; settings: OVX rats, third lumbar vertebra
# Procedure: 7- to 9-week-old W-I female rats (Imamichi Institute for Animal Reproduction) were subject to ovariectomy. […] After the last dose, 24-hour urine was sampled and the blood was taken under ether anesthesia. After the animal was euthanized, the lumbar vertebrae were removed.
# The lumbar bone mineral density was measured at the third lumbar vertebra site using a dual X-ray bone mineral content measuring device (DCS-600, ALOKA). The blood and urinary calcium concentrations and the urinary creatinine concentration were measured with an automatic analyzer (Model 7170, Hitachi).
# Statistical processing was carried out using Statistic Analysis System (SAS) software. A comparison between a sham operation (sham) group and an ovariectomy (OVX) group was made by an unpaired t-test. A comparison between the OVX group and the drug treatment group, or a comparison between the sham group and the drug treatment group was made by Dunnett's multiple test. A P-value less then 5% was considered as a significant difference.
# VDRE = test: Reporter gene (CAT) assay using reporter gene vector having VDRE; assay type: cell-based, African green monkey; settings: for VDRE-mediated transcription promoting activity: relative value with the EC50 value of 1α,25-dihydroxyvitamin D3 as 100%, COS-1 cells with rat vitamin D receptor expression vector, CAT ELISA, lower = more potent
# Description: The reporter gene vector having VDRE used was a product produced by integrating VDRE ([…]) of a mouse osteopontin gene into a cassette vector (pGCAT; Kato S. et al., Cell (1992)68, 731-742) containing a promoter region (-109/+10) of rabbit β-globin and CAT (chloramphenicol acetyltransferase). As an expression vector for β-galactosidase used for correction of transfection efficiency, pCH110 (Pharmacia) was used. As a carrier vector, BSM (BluescribeM13+: […]) was used.
# The rat vitamin D receptor expression vector used was a product obtained by integrating cDNA of a rat vitamin D receptor into pSG5 ([…]).
# COS-1 cells were cultured in a DMEM medium containing 5% FBS and 10 nM insulin, and cultures were subcultured at intervals of 3 or 4 days at a density of 1,500 to 3,000 cells/cm^2. The conditions for culture were 37°C and 5% CO2. For cultivation of COS-1 cells during reporter gene assay, a phenol red-free DMEM medium containing 5% DCC-FBS (charcoal-treated FBS) and 10 nM insulin was used. COS-1 cells were seeded into a 6-well plate at a density of 5 to 8 x 10^4 cells/1.75 mL/well. […]
# After overnight culture, each well was washed with 1 mL/well of a phenol red-free DMEM medium. […] Then, the amount of CAT expressed was measured using a CAT ELISA kit (Boehringer Mannheim).
# The cell lysate (10 µL), 175 µL of Buffer Z (60 mM Na2HPO4, 40 mM NaH2PO4, 10 mM KCl, 1 mM MgSO4) and 35 µL of 4 mg/mL ONPG (o-nitrophenyl-β-D-galactopyranoside; SIGMA) were mixed in a 96-well plate (Nunc-Immuno plate Maxi Sorp Surface) and the system was incubated for 1 hour at 37°C. Then, 100 µL of 1M Na2CO3 was added to terminate the reaction and A415 was measured with a plate reader. Based on the measured values, the number of units of the cell lysate was calculated from the following equation and the cell lysate in an amount corresponding to 15 units was used in CAT ELISA measurement. […]
# Based on the measured values of CAT ELISA, the EC50 value of each derivative was calculated to evaluate the VDRE-mediated action.
# osteoporosis model rats [2] = test: Bone mass decrease in osteoporosis model rats, oral treatment (Example 3); assay type: in vivo
# Procedure: 8-week-old W-I female rats (Imamichi Institute for Animal Reproduction) were subjected to overiectomy. From the following day onward, 1α-hydroxyvitamin D3 was orally administered 5 times weekly in a daily dose of 0.1 µg/kg, or Compound No. 22 was orally administered daily for 5 weeks in a daily dose of 3 µg/kg given as a single dose or two divided doses. After the last dose, 24-hour urine was sampled and a blood sample was taken under ether anesthesia. After the animal was euthanized, the lumbar vertebrae were removed. The lumbar bone mineral density was measured at the third lumbar vertebra site using a dual X-ray bone mineral content measuring device (DCS-600EX, ALOKA). The blood and urinary calcium concentrations and the urinary creatinine concentration were measured with an automatic analyzer (Model 7170, Hitachi).
# Statistical processing was carried out using basic software for statistical analysis (SAS). A comparison between the sham group and the OVX group, a comparison between the OVX group and the 1α-hydroxyvitamin D3 treatment group, or a comparison between the sham group and the 1α-hydroxyvitamin D3 treatment group was made by an unpaired t-test, with the p value less than 5% representing a significant difference. A comparison between the OVX group and the Compound No. 22 group, or a comparison between the sham group and the Compound No. 22 group was made by Dunnett's multiple test, with the p value less than 5% showing a significant difference.
# vitamin D receptor = biological target: T1, vitamin D receptor (Homo sapiens, UniProt P11473); test: Affinity for vitamin D receptor; assay type: binding; settings: relative to that of 1α,25-dihydroxyvitamin D3
# T1 sequence (P11473 1-427): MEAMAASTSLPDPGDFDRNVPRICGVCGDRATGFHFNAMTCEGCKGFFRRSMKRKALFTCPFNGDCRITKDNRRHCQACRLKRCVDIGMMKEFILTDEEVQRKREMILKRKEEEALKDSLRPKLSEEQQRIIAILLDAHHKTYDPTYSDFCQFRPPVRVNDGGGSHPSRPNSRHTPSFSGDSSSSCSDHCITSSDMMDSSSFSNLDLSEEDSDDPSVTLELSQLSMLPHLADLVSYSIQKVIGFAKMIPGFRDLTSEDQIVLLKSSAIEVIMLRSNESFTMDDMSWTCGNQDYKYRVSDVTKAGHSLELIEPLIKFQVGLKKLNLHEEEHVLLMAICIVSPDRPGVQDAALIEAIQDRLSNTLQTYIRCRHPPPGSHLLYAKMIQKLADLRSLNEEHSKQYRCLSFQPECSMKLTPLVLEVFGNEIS
# AP-1 complex = test: Reporter gene (luciferase) assay using reporter gene vector having AP-1 binding sequence; assay type: cell-based, human; settings: IC37.5 value expressed as percentage of the value of 1α,25-dihydroxyvitamin D3 (100%); Jurkat cells with rat vitamin D receptor expression vector, PMA and ionomycin stimulation; lower = more potent
# Description: (§1) A basic vector was constructed by inserting a promoter region (-72/+47) of a human IL-2 gene into a cassette vector of luciferase (pXP2; described in S.K. Nordeen, Biotechniques, Vol. 6, pp. 454-456, (1988)). For a reporter gene vector having an AP-1 binding sequence, five AP-1 binding sequences ([…]) of a human collagenase (MMP-1) gene were inserted tandem into the basic vector. For a reporter gene vector having an NF-κB binding sequence, four NF-κB binding sequences ([…]) of a human immunoglobulin light chain κ gene were inserted tandem into the basic vector. The resulting products were used as the respective reporter gene vectors.
# (§2) The rat vitamin D receptor expression vector used was a product obtained by inserting cDNA of a rat vitamin D receptor (described in James K. Burmester et al., Proc. Natl. Acad. Sci. USA, Vol. 85, pp. 9499-9502, […]) into the pSG5 ([…]).
# (§3) Jurkat cells were cultured in RPMI-1640 (GIBCO BRL) containing 10% FBS and antibiotics. The culture was started at a density of 5 x 10^4 cells/mL and the cells were subcultured at intervals of 3 or 4 days to a density of 5 x 10^4 cells/mL. The conditions for culture were 37°C and 5% CO2. […] Both of the solutions were mixed and then allowed to stand for 30 minute at room temperature.
# osteoporosis model rats [3] = test: Bone strength decrease and bone resorption in osteoporosis model rats, oral treatment (Example 4); assay type: in vivo
# Procedure: 13-month-old W-I female rats (Imamichi Institute for Animal Reproduction) were subject to overiectomy. From the following day onward, Compound No. 22 was administered p.o. daily for 3 months in a daily dose of 1.5 to 6 µg/kg given as two divided doses. After the last dose, 24-hour urine was sampled and a blood sample was taken under ether anesthesia. After the animal was euthanized, the lumbar vertebrae were removed.
# The lumbar bone mineral density was measured at the second to fourth lumbar vertebra site using a dual X-ray bone mineral content measuring device (DCS-600EX, ALOKA). The bone strength of the fifth lumbar vertebra was measured with Autograph AG-2000E (Shimadzu Corp.). The blood calcium concentration and the urinary creatinine concentration were measured with an automatic analyzer (Model 7170, Hitachi). The urinary deoxypyridinoline was measured with Osteolinks DPD.
# Statistical Analysis was carried out using Statistic Analysis System (SAS) software. A comparison between the sham group and the OVX group was made by an unpaired t-test. A comparison between the OVX group and the Compound No. 22 treatment group, or a comparison between the sham group and the Compound No. 22 treatment group was made by Dunnett's multiple test, with the p value less than 5% showing a significant difference.
# NF-κB family = test: Reporter gene (luciferase) assay using reporter gene vector having NF-κB binding sequence; assay type: cell-based, human; settings: IC37.5 value expressed as percentage of the value of 1α,25-dihydroxyvitamin D3 (100%); Jurkat cells with rat vitamin D receptor expression vector, PMA and ionomycin stimulation; lower = more potent
# Description: as §1, §2, §3
# [4] = OVX rats, 0.1 µg/kg orally 5 times weekly, in comparison with the sham group and the OVX group
compound,measurement,setting,value
"C=C1/C(=C\C=C2/CCC[C@]3(C)[C@@H]([C@H](C)CCCC(C)(C)O)CC[C@@H]23)C[C@@H](O)C[C@@H]1O [1α,25-dihydroxyvitamin D3, reference compound]",decrease in bone mineral density,osteoporosis model rats [1]; 0.04 µg/kg subcutaneously 5 times weekly for 6 weeks,significantly suppressed
same,VDRE-mediated transcription promoting activity,VDRE,100.00%
C=C1/C(=C\C=C2/CCC[C@]3(C)[C@@H]([C@H](C)CCCC(C)C)CC[C@@H]23)C[C@@H](O)C[C@@H]1O [1α-hydroxyvitamin D3],decrease in bone mineral density by OVX,"osteoporosis model rats [2]; 0.1 µg/kg orally 5 times weekly, third lumbar vertebra",significantly suppressed
same,blood Ca level,osteoporosis model rats [2]; [4],significantly increased
same,urinary Ca excretion,osteoporosis model rats [2]; [4],significantly increased
"C=C1/C(=C\C=C2/CCC[C@]3(C)C([C@@H](C)SCC(O)(CC)CC)=CC[C@@H]23)C[C@@H](O)C[C@@H]1O [Compound 22, 1α,3β-dihydroxy-20(R)-(2-ethyl-2-hydroxybutylthio)-9,10-secopregna-5,7,10(19),16-tetraene]",affinity for a vitamin D receptor,vitamin D receptor,0.8 times
same,decrease in bone mineral density,osteoporosis model rats [1]; 0.1 µg/kg subcutaneously 5 times weekly for 6 weeks,significant suppressing effect
same,decrease in bone mineral density,osteoporosis model rats [1]; doses of 0.01 to 0.1 µg/kg subcutaneously 5 times weekly for 6 weeks,dose-dependent effect of suppressing the decrease in bone mineral density
same,"VDRE-mediated transcription promoting activity relative to that of 1α,25-dihydroxyvitamin D3","VDRE; fraction of the activity of 1α,25-dihydroxyvitamin D3",about 1/10
same,VDRE-mediated transcription promoting activity,VDRE,1032.20%
same,Inhibitory activity against AP-1 complex,AP-1 complex,3.74%
same,serum Ca concentration,"osteoporosis model rats [3]; OVX rats, orally 0.75, 1.5 or 3 µg/kg twice daily for 3 months",without increases
same,urinary Dpyr excretion increased by OVX,"osteoporosis model rats [3]; oral treatment twice daily for 3 months, urinary deoxypyridinoline, bone resorption marker",significantly decreased
same,decrease in the bone strength by OVX,"osteoporosis model rats [3]; orally 0.75, 1.5 or 3 µg/kg twice daily for 3 months, fifth lumbar vertebra",significantly suppressed
same,decrease in the bone mineral density by OVX,"osteoporosis model rats [3]; orally 0.75, 1.5 or 3 µg/kg twice daily for 3 months, second to fourth lumbar vertebra",significantly suppressed
same,effect of suppressing the decrease in bone mineral density,"osteoporosis model rats [2]; OVX rats, orally 3 µg/kg once daily or 1.5 µg/kg twice daily for 5 weeks, third lumbar vertebra",comparable to or higher than that of 1α-hydroxyvitamin D3
same,Inhibitory activity against NF-κB family,NF-κB family,5.19%
